Data as given in patent US10765696B2, “Compositions of and methods of treatment with zwitterionic polysaccharide” (City of Hope, priority 2015, dated 2020).

What was measured:
T and B cells = test: Immune cell analysis in uninfected WT mice during/after oral PSA treatment; type: in vivo, mouse
Excerpt: PSA increases IL-10 secreting T and B cells, as depicted in FIGS. 14A-14B.
Line plots showing CD39, CD73 and ICOS surface expression on CD4 and CD8 T cells isolated from mesenteric LN (MLN) of uninfected WT mice at indicated times during oral PSA treatment are depicted in FIGS. 16A-16B. FIG. 16A depicts CD4 T cells isolated from MLN of uninfected WT mice at indicated times during oral PSA treatment. FIG. 16B depicts CD8 T cells isolated from MLN of uninfected WT mice at indicated times during oral PSA treatment.

HSV 17+ strain = test: Flow cytometry of infiltrating leukocytes in brainstem (CNS inflammation) at day 6 pi
[1] = system: DCs, PMNs, CD45+ intra-epithelial lymphocytes; test: Binding of fluorescent PSA to immune cells after oral gavage; type: in vivo, mouse; settings: ileum of 129 WT or Rag mice
B cells = test: Splenic B cell phenotype in treated HSV infected mice; type: in vivo, mouse; settings: six oral doses of PSA, ACV from day 4 pi, spleen day 6 pi
monocytes = test: Monocyte degranulation (CD107a/b), blood and spleen of treated HSV infected mice; settings: monocytes from blood and spleen, day 6 post-infection
HSV-1 strain 17+ = test: HSV encephalitis (HSE) survival model, corneal scarification; type: in vivo, mouse
Procedure: 129S6 Wild Type (WT), 129 FoxP3-GFP and IL-10 knock-out (KO) mice were bred. Male and female mice aged 6-10 weeks were infected with HSV-1 strain 17+ (HSV).
Prophylactic administration: six doses of 50 μg of PSA in sterile PBS was given as indicated-orally (PO), or intra-peritoneally (IP) over 3 weeks prior to HSV infection. Additionally, six doses of PSA were given IP on 9 days before HSV infection, 6 days before HSV infection, 3 days before HSV infection, day 0 of HSV infection (i.e., on the day of infection), 2 days post-infection, and 4 days post-infection. Mice received either PBS or the anti-viral drug acyclovir (ACV) from day 4 to 10 post-infection at 50 mg/kg. Therapeutic administration: PSA was administered on days 1, 3 and 6 post HSV infection by PO, IP or intravenous injection (IV) along with ACV beginning day 4-10 post-infection (pi).
The post-infection therapeutic regimen included PSA administered day 1, day 3, day 6 post-infection, with ACV administered from day 4 post-infection. At day 4 post-HSV infection, 1.25 mg of ACV was given per mouse by IP injections daily for 7 days. […] 129 WT or Rag mice were given PSA as indicated in FIG. 3A prior to the infection. ACV was given starting at day 4 post-infection (FIG. 3B).

T cells = test: Flow cytometry of T cells (phenotype, tetramer, intracellular cytokines) from treated HSV infected mice

In the case of “Bacteroides fragilis (B. fragilis) capsular polysaccharide A (PSA)”, the “IL-10 secreting T and B cells” value (T and B cells; MLN and spleen of uninfected WT mice after 6 doses of oral PSA) is reported as “increases”, the “accumulation of regulatory T cells (CD39, CD73, ICOS expression)” value (T and B cells; mesenteric lymph nodes of uninfected WT mice during oral PSA treatment) is reported as “increases accumulation” and the “CNS inflammation (% CD45high infiltrates, Ly6Chigh CD11b+ inflammatory monocytes in brainstem)” value (HSV 17+ strain; 129 Rag mice, ACV from day 4 pi, brainstem day 6 pi) is reported as “does not reduce CNS inflammation”. The “CNS inflammation (infiltrating leukocytes in brainstem)” value (HSV 17+ strain; 129 WT mice, ACV from day 4 pi, brainstem day 6 pi) was “reducing CNS inflammation”, the “CD8+ in brainstem that were CD103+” value (HSV 17+ strain; 129 WT mice, brainstem) was “majority” and the “CD8+ virus specific based on tetramer staining” value (HSV 17+ strain; 129 WT mice, brainstem) was “Greater than 70%”. For the same molecule, the “IL-10 secretion from PSA stimulated CD45+ IEL” value [1] was “induce IL-10 secretion by CD45+ IEL T cells in wild type but not Rag mice”, the “splenic B cell phenotype (CD138)” value (B cells) was “the majority of B cells express a highly activated secretory plasmablast phenotype” and the “degranulation of monocytes following stimulation with HSV antigen” value (monocytes) was “limited degranulation”. For the same molecule, the “spontaneous degranulation of monocytes” value (monocytes) was “reduced spontaneous degranulation”, the “survival of PSA treated B cell knockout mice or 129 Rag recipients of CD4 T cells, CD8 T cells or B cells” value (HSV-1 strain 17+; HSV 17+ strain, ACV from day 4 pi) was “B cells and T cells are essential for PSA mediated protection” and the “protection against HSV infection” value (HSV-1 strain 17+; PSA IP therapeutically day 1, day 3, day 6 with ACV from day 4 post-infection) was “also did not protect against HSV infection”. The “development of fatal HSE” value (HSV-1 strain 17+; mice pretreated with purified PSA prior to the HSV-1 infection, control PBS) was “prevented the development of fatal HSE”, the “protection against HSV infection” value (HSV-1 strain 17+; six doses of 50 μg PSA prior to and during infection (or day -8 to +4 regimen, or day 1, 3, 6 pi), ACV 1.25 mg IP daily for 7 days from day 4 pi) was “did not protect against HSV infection” and the “CD4+ ICOS+ T cells in the spleen” value (T cells; 129 WT mice, spleen) was 56%. For the same molecule, the “CD4+ ICOS+ T cells that produced IL-10” value (T cells; PMA+ ionomycin stimulation) was “Approximately 10%”, the “phenotype of FoxP3 Tregs (CD25, CD103)” value (T cells; cervical lymph nodes, HSV infected WT mice, ACV from d4, day 6 pi) was “functional phenotype” and the “CD62Llow CD4 T cells that were ICOS+” value (T cells; oral PSA, blood and spleen, day 6 post-infection) was 56%. For the same molecule, the “virus specific spleen CD8 T cells that were CD103+” value (T cells; six oral doses of PSA, ACV from day 4, spleen day 6 post-infection) was greater than 70%, the “CD4s that secrete IL-10 in response to stimulation” value (T cells; six oral doses of PSA, ACV from day 4, spleen day 6 post-infection, PMA+ionomycin) was “about 11%” and the “frequency of Tregs” value (T cells; spleen or BS) was “No change”.

In the case of `Nc1nc2c(ncn2COCCO)c(=O)[nH]1` [ACV, acyclovir, reference compound], the “prevention of lethal HSV encephalitis (HSE)” value (HSV-1 strain 17+; 129 WT mice, ACV given at day 4 post infection) is reported as “Cannot Prevent Lethal HSV Encephalitis (HSE)”.
